Assay results as given in patent US9957247B2, “SecA inhibitors and methods of making and using thereof” (Georgia State University Research Foundation, Inc., priority 2012, dated 2018).
pIC50: −log10 of the molar value. Values after ≈ are worked out from the molar mass of the structure shown. Read-outs that look alike come from different tables or passages of the source.

Key:
SaSecA1 [1] = biological target: T1, SaSecA1 (Staphylococcus aureus, UniProt O06446); test: cell-based
T1 sequence (O06446 1-843): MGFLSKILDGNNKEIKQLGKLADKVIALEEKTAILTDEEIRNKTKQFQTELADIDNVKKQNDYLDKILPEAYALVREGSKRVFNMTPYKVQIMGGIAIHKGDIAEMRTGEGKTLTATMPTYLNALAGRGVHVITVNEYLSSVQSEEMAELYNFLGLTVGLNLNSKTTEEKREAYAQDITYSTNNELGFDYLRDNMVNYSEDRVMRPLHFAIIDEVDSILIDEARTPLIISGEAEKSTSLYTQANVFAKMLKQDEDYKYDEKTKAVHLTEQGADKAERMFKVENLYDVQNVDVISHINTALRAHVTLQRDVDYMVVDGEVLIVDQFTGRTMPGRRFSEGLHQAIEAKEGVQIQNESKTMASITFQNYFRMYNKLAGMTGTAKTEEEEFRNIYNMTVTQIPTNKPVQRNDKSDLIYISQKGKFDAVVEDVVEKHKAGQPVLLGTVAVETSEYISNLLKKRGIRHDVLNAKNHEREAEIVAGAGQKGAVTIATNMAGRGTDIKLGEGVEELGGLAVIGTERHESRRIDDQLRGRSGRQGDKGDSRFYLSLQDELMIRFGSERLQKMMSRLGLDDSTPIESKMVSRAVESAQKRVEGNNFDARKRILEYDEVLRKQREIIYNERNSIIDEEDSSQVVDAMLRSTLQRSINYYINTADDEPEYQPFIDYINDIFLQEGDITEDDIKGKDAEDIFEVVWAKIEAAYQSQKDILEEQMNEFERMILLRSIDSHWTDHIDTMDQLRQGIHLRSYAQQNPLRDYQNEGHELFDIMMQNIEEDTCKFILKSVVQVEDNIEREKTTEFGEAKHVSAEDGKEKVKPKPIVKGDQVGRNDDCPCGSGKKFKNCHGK

S. aureus 8325-4 = test: Bacteriostatic effect, S. aureus 8325-4 (WT); conditions: Staphylococcus aureus, 83254, read-out: Bacteriostatic effect, MIC, WT 8325-4
[2] = test system: S. aureus deletion strains (NorA−, MepA−) and strains (NorA++, MepA++) with over-expressed efflux pumps; test: Antimicrobial effect with deletion or over expression of efflux pumps in S. aureus
S. aureus 6538 [3] = test: Bactericidal effect, S. aureus 6538; conditions: 9 μg/ml, 1 hour at 37° C., FIG. 5
BsSecA = BsSecA (Bacillus subtilis, UniProt P28366); test: cell-based; design: species or system B. subtilis; conditions: IC50, Ion Channel activity, BsSecA, Table 1
EcSecA [4] = biological target: T2, EcSecA (Escherichia coli, UniProt P10408); test: cell-based
Target sequence in this assay (P10408 whole entry): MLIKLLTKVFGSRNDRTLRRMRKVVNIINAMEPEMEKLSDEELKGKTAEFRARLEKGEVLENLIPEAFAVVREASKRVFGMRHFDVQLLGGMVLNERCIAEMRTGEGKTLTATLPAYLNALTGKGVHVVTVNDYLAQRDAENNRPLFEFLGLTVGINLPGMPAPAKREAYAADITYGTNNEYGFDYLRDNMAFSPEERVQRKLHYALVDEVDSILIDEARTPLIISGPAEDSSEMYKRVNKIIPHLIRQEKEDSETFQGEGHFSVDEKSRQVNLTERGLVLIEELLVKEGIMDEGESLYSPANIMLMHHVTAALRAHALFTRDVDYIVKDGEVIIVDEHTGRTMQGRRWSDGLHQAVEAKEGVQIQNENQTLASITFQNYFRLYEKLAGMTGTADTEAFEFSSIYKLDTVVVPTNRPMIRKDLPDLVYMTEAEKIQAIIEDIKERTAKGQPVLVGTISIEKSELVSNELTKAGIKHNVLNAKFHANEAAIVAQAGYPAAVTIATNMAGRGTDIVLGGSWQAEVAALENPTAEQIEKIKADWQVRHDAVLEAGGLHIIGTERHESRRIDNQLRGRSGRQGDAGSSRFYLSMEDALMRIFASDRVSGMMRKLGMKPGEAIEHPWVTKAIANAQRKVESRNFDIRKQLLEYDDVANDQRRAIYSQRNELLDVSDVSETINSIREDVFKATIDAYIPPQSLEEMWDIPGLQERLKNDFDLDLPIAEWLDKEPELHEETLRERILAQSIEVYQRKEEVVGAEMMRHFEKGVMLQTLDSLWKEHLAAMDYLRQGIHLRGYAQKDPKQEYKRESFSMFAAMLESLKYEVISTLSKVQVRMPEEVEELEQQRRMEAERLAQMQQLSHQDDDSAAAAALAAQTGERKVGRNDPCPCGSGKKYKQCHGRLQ

S. aureus Mu50 = test: Bacteriostatic effect, S. aureus Mu50; conditions: for MIC: Staphylococcus aureus
EcSecA [5] = biological target: T2, EcSecA; test: biochemical; conditions: IC50, Translocation ATPase, Table 1
Target sequence in this assay (P0AG99 whole entry): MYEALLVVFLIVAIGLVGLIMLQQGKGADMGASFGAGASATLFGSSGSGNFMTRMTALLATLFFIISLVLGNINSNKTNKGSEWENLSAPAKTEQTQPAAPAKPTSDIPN
Target sequence in this assay (P10408 whole entry): as the sequence (P10408 whole entry) above
Target sequence in this assay (P0AGA2 whole entry, further chain): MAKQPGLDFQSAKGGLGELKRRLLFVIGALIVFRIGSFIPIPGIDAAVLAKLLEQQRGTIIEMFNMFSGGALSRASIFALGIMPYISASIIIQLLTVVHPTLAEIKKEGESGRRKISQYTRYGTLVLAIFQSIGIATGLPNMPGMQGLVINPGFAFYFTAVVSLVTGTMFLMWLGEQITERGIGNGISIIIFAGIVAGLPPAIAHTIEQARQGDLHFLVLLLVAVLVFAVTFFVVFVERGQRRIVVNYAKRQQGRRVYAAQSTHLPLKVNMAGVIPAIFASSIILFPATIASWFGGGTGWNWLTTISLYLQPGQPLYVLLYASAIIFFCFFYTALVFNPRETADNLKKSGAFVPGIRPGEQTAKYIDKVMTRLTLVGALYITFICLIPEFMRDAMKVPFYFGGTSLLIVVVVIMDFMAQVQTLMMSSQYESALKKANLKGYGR
Target sequence in this assay (P0AG96 whole entry, further chain): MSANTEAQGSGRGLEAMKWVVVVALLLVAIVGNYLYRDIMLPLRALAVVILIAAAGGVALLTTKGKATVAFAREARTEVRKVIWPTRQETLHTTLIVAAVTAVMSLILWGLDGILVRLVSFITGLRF

MtbSecA = MtbSecA (Mycobacterium tuberculosis, UniProt P9WGP5); test: cell-based
EcSecA [6] = biological target: T2, EcSecA; test: biochemical; conditions: IC50, Protein Translocation, Table 1
Target sequence in this assay (P0AG99 whole entry): as the sequence (P0AG99 whole entry) above
Target sequence in this assay (P10408 whole entry): as the sequence (P10408 whole entry) above
Target sequence in this assay (P0AGA2 whole entry, further chain): as the sequence (P0AGA2 whole entry, further chain) above
Target sequence in this assay (P0AG96 whole entry, further chain): as the sequence (P0AG96 whole entry, further chain) above

SaSecA2 = biological target: T3, SaSecA2 (Staphylococcus aureus, UniProt Q2FUW6); test: ATPase activity assay (malachite green), SaSecA2; conditions: IC50, ATPase activity, SaSecA2, Table 7
T3 sequence (Q2FUW6 1-796): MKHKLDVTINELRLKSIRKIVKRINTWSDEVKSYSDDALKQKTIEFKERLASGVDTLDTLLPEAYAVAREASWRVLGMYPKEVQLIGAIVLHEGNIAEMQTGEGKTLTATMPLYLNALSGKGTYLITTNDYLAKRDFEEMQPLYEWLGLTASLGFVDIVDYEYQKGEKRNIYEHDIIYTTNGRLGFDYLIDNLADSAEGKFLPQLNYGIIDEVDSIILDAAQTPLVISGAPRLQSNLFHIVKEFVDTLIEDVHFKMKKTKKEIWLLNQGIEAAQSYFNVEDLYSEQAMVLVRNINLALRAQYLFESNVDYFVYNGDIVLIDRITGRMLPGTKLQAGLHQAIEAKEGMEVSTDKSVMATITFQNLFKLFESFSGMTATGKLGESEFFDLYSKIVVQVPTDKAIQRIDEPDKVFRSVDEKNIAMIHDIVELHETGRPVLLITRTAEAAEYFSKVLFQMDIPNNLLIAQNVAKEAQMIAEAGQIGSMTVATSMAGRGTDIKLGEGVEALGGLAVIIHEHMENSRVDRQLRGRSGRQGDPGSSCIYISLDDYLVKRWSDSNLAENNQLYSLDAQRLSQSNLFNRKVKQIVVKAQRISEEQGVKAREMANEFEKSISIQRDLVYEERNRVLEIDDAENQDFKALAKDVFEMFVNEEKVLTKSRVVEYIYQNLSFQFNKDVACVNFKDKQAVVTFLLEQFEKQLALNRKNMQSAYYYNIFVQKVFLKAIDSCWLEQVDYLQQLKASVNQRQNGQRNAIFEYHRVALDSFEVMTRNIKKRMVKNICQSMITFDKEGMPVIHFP

S. aureus 6538 [7] = test: Bacteriostatic effect, S. aureus 6538; conditions: Staphylococcus aureus, 6538, read-out: Bacteriostatic effect, MIC, S. aureus 6538
S. aureus N315 = test: Bacteriostatic effect, S. aureus N315; conditions: Staphylococcus aureus, N315, read-out: Bacteriostatic effect, MIC, S. aureus N315
BsSecA2 = conditions: read-out: IC50, Intrinsic ATPase, BsSecA2; Table 1
SaSecA1 [8] = biological target: T1, SaSecA1; conditions: read-out: IC50, ATPase activity, SaSecA1; Table 7

Chain of BsSecA (P28366 whole entry): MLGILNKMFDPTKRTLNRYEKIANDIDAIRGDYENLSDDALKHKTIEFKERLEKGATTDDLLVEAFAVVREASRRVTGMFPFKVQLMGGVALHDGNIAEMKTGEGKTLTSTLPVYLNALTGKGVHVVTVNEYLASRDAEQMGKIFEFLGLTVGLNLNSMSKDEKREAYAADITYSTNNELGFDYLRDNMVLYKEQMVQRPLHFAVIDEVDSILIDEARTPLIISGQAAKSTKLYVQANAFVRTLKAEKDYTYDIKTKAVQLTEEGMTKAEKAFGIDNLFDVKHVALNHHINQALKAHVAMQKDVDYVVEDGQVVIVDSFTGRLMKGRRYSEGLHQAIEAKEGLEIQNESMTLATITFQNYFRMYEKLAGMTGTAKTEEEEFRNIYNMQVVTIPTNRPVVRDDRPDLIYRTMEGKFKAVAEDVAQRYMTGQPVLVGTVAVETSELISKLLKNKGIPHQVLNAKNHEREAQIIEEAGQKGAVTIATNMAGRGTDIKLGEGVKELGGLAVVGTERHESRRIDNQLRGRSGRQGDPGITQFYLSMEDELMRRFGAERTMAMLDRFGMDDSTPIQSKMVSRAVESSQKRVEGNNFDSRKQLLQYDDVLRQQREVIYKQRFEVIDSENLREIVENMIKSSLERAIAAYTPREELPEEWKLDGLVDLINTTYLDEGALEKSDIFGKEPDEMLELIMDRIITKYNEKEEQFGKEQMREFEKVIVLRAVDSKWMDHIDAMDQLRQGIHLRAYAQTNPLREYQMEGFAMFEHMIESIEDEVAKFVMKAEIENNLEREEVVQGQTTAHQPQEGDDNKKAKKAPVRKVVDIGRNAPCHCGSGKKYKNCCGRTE
Chain of MtbSecA (P9WGP5 whole entry): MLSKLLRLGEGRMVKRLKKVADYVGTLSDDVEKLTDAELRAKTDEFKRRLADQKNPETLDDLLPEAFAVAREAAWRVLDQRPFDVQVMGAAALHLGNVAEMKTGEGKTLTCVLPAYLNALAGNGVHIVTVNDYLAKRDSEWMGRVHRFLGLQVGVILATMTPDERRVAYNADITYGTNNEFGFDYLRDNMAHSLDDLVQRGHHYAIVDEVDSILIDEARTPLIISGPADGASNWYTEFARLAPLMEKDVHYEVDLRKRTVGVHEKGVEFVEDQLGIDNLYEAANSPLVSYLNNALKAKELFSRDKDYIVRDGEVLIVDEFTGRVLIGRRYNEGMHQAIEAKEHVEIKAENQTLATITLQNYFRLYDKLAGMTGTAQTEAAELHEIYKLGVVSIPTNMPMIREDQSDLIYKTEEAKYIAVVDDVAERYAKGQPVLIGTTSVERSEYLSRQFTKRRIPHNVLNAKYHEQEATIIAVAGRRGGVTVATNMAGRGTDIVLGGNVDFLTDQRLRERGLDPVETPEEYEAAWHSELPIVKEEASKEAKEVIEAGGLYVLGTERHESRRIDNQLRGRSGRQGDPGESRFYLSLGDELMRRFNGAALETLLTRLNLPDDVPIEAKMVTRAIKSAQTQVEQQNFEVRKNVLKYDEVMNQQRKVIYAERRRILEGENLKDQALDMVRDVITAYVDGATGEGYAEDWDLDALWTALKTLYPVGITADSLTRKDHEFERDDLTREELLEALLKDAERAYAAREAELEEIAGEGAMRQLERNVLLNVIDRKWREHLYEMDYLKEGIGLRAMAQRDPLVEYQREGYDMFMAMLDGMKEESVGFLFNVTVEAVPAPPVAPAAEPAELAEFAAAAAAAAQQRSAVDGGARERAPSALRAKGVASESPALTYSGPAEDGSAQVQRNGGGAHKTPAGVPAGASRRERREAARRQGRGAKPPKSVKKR

CCCCCCC1c2ccc(O)cc2Oc2cc(O)ccc21 [SCA-50]
pIC50 (SaSecA1 [1]): 5.96 | pIC50 (SaSecA1 [1]; IC50, Ion-channel activity, SaSecA1, Table 7): 5.96 | MIC (S. aureus 8325-4): 3.7 µg/mL (≈ 12.4 µM) | Change of MIC on overexpression or deletion of NorA or MepA [2]: did not significantly change | Bactericidal activity, log numbers killed, S. aureus 6538 (S. aureus 6538 [3]): 2 log numbers | pIC50 (BsSecA): 5.60 | pIC50 (EcSecA [4]): 5.64 | MIC fold less than the MIC of ampicillin, kanamyin, erythromycin, and rifampicin (S. aureus Mu50; S. aureus Mu50): 250 fold | MIC (S. aureus Mu50; MU50, read-out: Bacteriostatic MIC95, S. aureus Mu50, Table 2): 2.4 µg/mL | MIC (S. aureus Mu50; MU50, read-out: Bacteriostatic effect MIC, S. aureus Mu50, Table 10 and Example 4): 4 µg/mL | MIC (S. aureus Mu50; MU50, read-out: Bacteriostatic effect, MIC, S. aureus Mu50, Table 8): 3.7 µg/mL | MIC (S. aureus Mu50; MU50, read-out: MIC95 against drug resistant S. aureus Mu50): 2.4 µM | Bacteriostatic effect MIC, S. aureus Mu50 (S. aureus Mu50; Table 10 and text of Example 4): 3.7 µg/mL | pIC50 (EcSecA [5]): 4.22 | pIC50 (MtbSecA): 5.52 | pIC50 (EcSecA [6]): 4.42 | pIC50 (SaSecA2): 4.76 | MIC (S. aureus 6538 [7]): 3.7 µg/mL (≈ 12.4 µM) | MIC (S. aureus N315): 3.7 µg/mL (≈ 12.4 µM) | pIC50 (BsSecA2): 4.70 | pIC50 (SaSecA1 [8]): 4.70
